# Measurements: patent US11214803B2, “Modulators of YAP1 expression” (Ionis Pharmaceuticals, Inc., priority 2019, dated 2022)
# pIC50: −log10 of the molar value. Strand notation (5' to 3'): a small letter for the sugar, then the base; units joined by * are phosphorothioate-linked, units joined directly phosphodiester-linked; [ ] holds rarer units or linkages, { } end groups; capitals alone tell only the bases. k = constrained ethyl (cEt); [5mC] = 5-methylcytosine; d = 2'-deoxy (DNA)
# What was measured:
# [1] = Tolerability in Balb/c mice, body and organ weights (Example 10); format: in vivo; conditions: 50 mg/kg subcutaneously twice a week for four weeks, end of study
# Description: (§1) Groups of male Balb/c mice at 4-6 weeks of age (obtained from Taconic) were injected subcutaneously twice a week for four weeks (for a total of 8 treatments) with 50 mg/kg of modified oligonucleotides. One group of male Balb/c mice was injected with PBS. Mice were euthanized on day 26 post start of treatment (24 hours following the final administration).
# (§2) Body weights of Balb/c mice were measured at the end of the study, and the average body weight for each group is presented in the table below. Modified oligonucleotides that caused any changes in organ weights outside the expected range for modified oligonucleotides were excluded from further studies.
# Yap1 mRNA = experiment: Dose-dependent inhibition of human Yap1 in A-431 cells (Example 6, 5,000 cells per well, RTS4814); format: cell-based; conditions: Table 53, A-431 cells
# How it was run: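 A-431 cells (5,000/well) took up oligonucleotides by free uptake at various doses for about 48 h. Yap1 mRNA was measured by RT-PCR (RTS4814), normalised to RIBOGREEN total RNA and expressed as % untreated control; IC50 by linear regression on a log/linear plot.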
# [2] = Tolerability in CD-1 mice, plasma chemistry markers (Example 15); format: in vivo; conditions: male CD-1 mice, 50 mg/kg s.c. twice a week for four weeks (8 treatments), day 26
# Description: CD-1 mice were treated with modified oligonucleotides selected from studies described above and evaluated for changes in the levels of various plasma chemistry markers.
# Groups of four male CD-1 mice at 4-5 weeks of age (obtained from Charles River) were injected subcutaneously twice a week for four weeks (for a total of 8 treatments) with 50 mg/kg of modified oligonucleotides. One group of male CD-1 mice was injected with PBS. Mice were euthanized on day 26 post start of treatment (24 hrs following the final administration).
# [3] = Tolerability in Balb/c mice, body and organ weights (Example 12); format: in vivo; conditions: male Balb/c mice, 50 mg/kg s.c. twice a week for four weeks (8 treatments), end of study (day 26)
# Description: as §1, with “6-7” for “4-6”
# as §2
# [4] = test system: subcutaneous DEN carcinomas; experiment: Tumor volume in DEN-HCC model, in combination with a-PD1 antibody (Example 49); format: in vivo, C57BL/6 mice; conditions: for Average Tumor Volume: DEN-HCC subcutaneous model, C57BL/6 mice
# Description: N-nitrosodiethylamine (DEN) is administered at 25 mg/kg into 15 day old C57/BL6 mice. Carcinomas form 6 months post injection. After formation, carcinomas were then dissected from the liver and passaged subcutaneously into C57BL/6 male mice at 4-6 weeks of age to establish a subcutaneous model. For this experiment, mice were passaged with P8 subcutaneously established DEN carcinomas, rendering P9 for the duration of the experiment. Subcutaneous carcinomas are found to form at 4-6 weeks post implantation. Modified oligonucleotides 792169 (control compound) and 715491 (YAP-1 targeting modified oligonucleotide) were treated subcutaneously into groups of 7-8 mice at 10 mg/kg/week 5 times a week for 11 weeks (total of 55 doses). The PBS-only treated group and the control group were treated 5 times a week for 4 weeks (total of 20 doses). α-PD1 antibody (BioXCell) was treated intraperitoneally at 10 mg/kg/week twice a week for 4 weeks (total of 8 doses). F.D. refers to mice that were sacrificed because their tumor volume became too large.
substance,measurement,setting,value
715487 (kA*kT*kT*dA*d[5mC]*dT*dT*d[5mC]*dA*dT*dA*dG*d[5mC]*kT*kT*kA) [compound 715487],Kidney weight,[1],0.36 g
same,Liver weight,[1],1.24 g
same,Spleen weight,[1],0.14 g
same,body weight,[1],23 g
same,pIC50,"Yap1 mRNA; Yap1 mRNA, linear regression on a log/linear plot",6.00
same,% UTC 148 nM,"Yap1 mRNA; free uptake, 148 nM, approximately 48 hours, RTS4814",87 % UTC
same,% UTC 444 nM,"Yap1 mRNA; free uptake, 444 nM, approximately 48 hours, RTS4814",56 % UTC
same,% UTC 1333 nM,"Yap1 mRNA; free uptake, 1333 nM, approximately 48 hours, RTS4814",48 % UTC
same,% UTC 4000 nM,"Yap1 mRNA; free uptake, 4000 nM, approximately 48 hours, RTS4814",29 % UTC
same,ALB,[2],1.9 g/dL
same,ALT,[2],66 U/L
same,AST,[2],113 U/L
"958499 (ATTAGAGTATGTGGCA; 3-10-3 cEt gapmer, further chemistry not given here) [compound 958499]",Kidney weight,[3],0.32 g
same,Liver weight,[3],1.44 g
same,Spleen weight,[3],0.14 g
same,body weight,[3],23 g
"CGCCGATAAGGTACAC (cEt gapmer, phosphorothioate backbone, further chemistry not given here) [ION 792169, reference compound]",Average Tumor Volume,[4]; day 1 on treatment,354 mm3
same,Average Tumor Volume,[4]; day 5 on treatment,376 mm3
same,Average Tumor Volume,[4]; day 8 on treatment,414 mm3
same,Average Tumor Volume,[4]; day 11 on treatment,523 mm3
same,Average Tumor Volume,[4]; day 15 on treatment,604 mm3
same,Average Tumor Volume,[4]; day 18 on treatment,633 mm3
same,Average Tumor Volume,[4]; day 23 on treatment,773 mm3
same,Average Tumor Volume,[4]; day 25 on treatment,864 mm3
same,Average Tumor Volume,[4]; day 28 on treatment,802 mm3
same,Average Tumor Volume,[4]; day 31 on treatment,F.D.
same,Average Tumor Volume,[4]; day 35 on treatment,F.D.
same,Average Tumor Volume,[4]; day 38 on treatment,F.D.
same,Average Tumor Volume,[4]; day 43 on treatment,F.D.
same,Average Tumor Volume,[4]; day 45 on treatment,F.D.
same,Average Tumor Volume,[4]; day 49 on treatment,F.D.
same,Average Tumor Volume,[4]; day 54 on treatment,F.D.
same,Average Tumor Volume,[4]; day 58 on treatment,F.D.
same,Average Tumor Volume,[4]; day 61 on treatment,F.D.
same,Average Tumor Volume,[4]; day 65 on treatment,F.D.
same,Average Tumor Volume,[4]; day 68 on treatment,F.D.
same,Average Tumor Volume,[4]; day 72 on treatment,F.D.
same,Average Tumor Volume,[4]; day 75 on treatment,F.D.
same,Average Tumor Volume,[4]; day 79 on treatment,F.D.
same,tumor volume (outcome in words),"[4]; subcutaneous DEN carcinomas in C57BL/6 male mice, 10 mg/kg/week, oligonucleotide subcutaneously, antibody intraperitoneally",sacrificed before the end of the experiment because their tumor volume became too large
